Data published in ChEMBL document CHEMBL3774345, “Synthesis of new diarylamides with pyrimidinyl pyridine scaffold and evaluation of their anti-proliferative effect on cancer cell lines” (Bioorg Med Chem Lett, 2016).

Columns and labels:
[1] = Cytotoxicity against human SNB75 cells assessed as growth inhibition at 10 uM after 24 hrs by SRB assay; type: functional; conditions: SNB-75, 24 h, read-out: GI
[2] = tested on: T47D; assay: Cytotoxicity against human T47D cells after 24 hrs by SRB assay; type: functional
[3] = Cytotoxicity against human RPMI8226 cells assessed as cell growth at 10^-7 M after 24 hrs by SRB assay; type: functional; conditions: RPMI-8226, 24 h, read-out: Activity
[4] = Cytotoxicity against human HCT15 cells assessed as cell growth at 10^-5 M after 24 hrs by SRB assay; type: functional; conditions: HCT-15, 24 h, read-out: Activity
[5] = Cytotoxicity against human PC3 cells assessed as cell growth at 10^-8 M after 24 hrs by SRB assay; type: functional; conditions: PC-3, 24 h, read-out: Activity
[6] = tested on: SN12C; assay: Cytotoxicity against human SN12C cells assessed as cell growth at 10^-4 M after 24 hrs by SRB assay; type: functional; conditions: read-out: Activity
[7] = tested on: U-251; assay: Cytotoxicity against human U251 cells assessed as cell growth at 10^-5 M after 24 hrs by SRB assay; type: functional; conditions: U-251, 24 h, read-out: Activity
[8] = tested on: T47D; assay: Cytotoxicity against human T47D cells assessed as cell growth at 10^-4 M after 24 hrs by SRB assay; type: functional; conditions: read-out: Activity
[9] = Cytotoxicity against human SNB75 cells assessed as cell growth at 10^-5 M after 24 hrs by SRB assay; type: functional; conditions: SNB-75, 24 h, read-out: Activity
[10] = Cytotoxicity against human SF268 cells after 24 hrs by SRB assay; type: functional; conditions: SF-268, 24 h
[11] = Cytotoxicity against human UO31 cells after 24 hrs by SRB assay; type: functional, cell-based; conditions: UO-31, 24 h
[12] = Cytotoxicity against human TK10 cells assessed as cell growth at 10^-5 M after 24 hrs by SRB assay; type: functional; conditions: TK-10, 24 h, read-out: Activity
[13] = tested on: EKVX; assay: Cytotoxicity against human EKVX cells assessed as cell growth at 10^-8 M after 24 hrs by SRB assay; type: functional; conditions: read-out: Activity
[14] = Cytotoxicity against human MOLT4 cells assessed as cell growth at 10^-6 M after 24 hrs by SRB assay; type: functional; conditions: MOLT-4, 24 h, read-out: Activity
[15] = Cytotoxicity against human UACC257 cells assessed as cell growth at 10^-7 M after 24 hrs by SRB assay; type: functional; conditions: UACC-257, 24 h, read-out: Activity
[16] = tested on: SK-MEL-5; assay: Cytotoxicity against human SK-MEL-5 cells assessed as cell growth at 10^-8 M after 24 hrs by SRB assay; type: functional; conditions: SK-MEL-5, 24 h, read-out: Activity
[17] = Cytotoxicity against human DU145 cells after 24 hrs by SRB assay; type: functional; conditions: DU-145, 24 h
[18] = tested on: EKVX; assay: Cytotoxicity against human EKVX cells after 24 hrs by SRB assay; type: functional
[19] = Cytotoxicity against human Caki1 cells assessed as cell growth at 10^-6 M after 24 hrs by SRB assay; type: functional; conditions: CAKI-1, 24 h, read-out: Activity
[20] = Cytotoxicity against human PC3 cells assessed as cell growth at 10^-6 M after 24 hrs by SRB assay; type: functional; conditions: PC-3, 24 h, read-out: Activity
[21] = Cytotoxicity against human SF268 cells assessed as cell growth at 10^-5 M after 24 hrs by SRB assay; type: functional; conditions: SF-268, 24 h, read-out: Activity
[22] = Cytotoxicity against human SNB75 cells assessed as cell growth at 10^-6 M after 24 hrs by SRB assay; type: functional; conditions: SNB-75, 24 h, read-out: Activity
[23] = tested on: SR; assay: Cytotoxicity against human SR cells assessed as cell growth at 10^-6 M after 24 hrs by SRB assay; type: functional; conditions: read-out: Activity
[24] = Cytotoxicity against human SNB19 cells assessed as cell growth at 10^-4 M after 24 hrs by SRB assay; type: functional; conditions: SNB-19, 24 h, read-out: Activity
[25] = Cytotoxicity against human HCC2998 cells after 24 hrs by SRB assay; type: functional, cell-based; conditions: HCC 2998, 24 h
[26] = Cytotoxicity against human NCI-ADR-RES cells assessed as cell growth at 10^-8 M after 24 hrs by SRB assay; type: functional; conditions: read-out: Activity
[27] = Cytotoxicity against human UACC62 cells assessed as cell growth at 10^-8 M after 24 hrs by SRB assay; type: functional; conditions: UACC-62, 24 h, read-out: Activity
[28] = tested on: KM12; assay: Cytotoxicity against human KM12 cells assessed as cell growth at 10^-7 M after 24 hrs by SRB assay; type: functional; conditions: KM12, 24 h, read-out: Activity
[29] = tested on: SN12C; assay: Cytotoxicity against human SN12C cells assessed as cell growth at 10^-8 M after 24 hrs by SRB assay; type: functional; conditions: read-out: Activity
[30] = Cytotoxicity against human HCT15 cells assessed as cell growth at 10^-7 M after 24 hrs by SRB assay; type: functional; conditions: HCT-15, 24 h, read-out: Activity
[31] = tested on: NCI-H322M; assay: Cytotoxicity against human NCI-H322M cells assessed as cell growth at 10^-4 M after 24 hrs by SRB assay; type: functional; conditions: read-out: Activity
[32] = Cytotoxicity against human LOXIMVI cells assessed as cell growth at 10^-5 M after 24 hrs by SRB assay; type: functional; conditions: LOX IMVI, read-out: Activity
[33] = Cytotoxicity against human RXF393 cells assessed as cell growth at 10^-7 M after 24 hrs by SRB assay; type: functional; conditions: RXF 393, 24 h, read-out: Activity
[34] = Cytotoxicity against human BT549 cells assessed as cell growth at 10^-7 M after 24 hrs by SRB assay; type: functional; conditions: BT-549, 24 h, read-out: Activity
[35] = tested on: K562; assay: Cytotoxicity against human K562 cells assessed as cell growth at 10^-7 M after 24 hrs by SRB assay; type: functional; conditions: K562, 24 h, read-out: Activity
[36] = Cytotoxicity against human TK10 cells after 24 hrs by SRB assay; type: functional; conditions: TK-10, 24 h
[37] = read-out: LC50 (the source's name)
[38] = read-out: pLC50 (the source's name) (converted)

## COCCCNc1nc(NC(=O)c2cc(OC)cc(OC)c2)cc(-c2cccnc2)n1
[1]
  inhibition of growth at 10 µM: 26.9%

## O=C(Nc1cc(-c2cccnc2)nc(NCCCN2CCOCC2)n1)c1cc(Br)cc(C(F)(F)F)c1
[2]; read-out: GI50
  GI50: 3.72 µM
[2]; [37]
  CC50: 48.5 µM
[2]; read-out: TGI
  TGI: 16.1 µM
[2]; read-out: pGI50 (converted)
  GI50: 3.72 µM
[2]; [38]
  CC50: 49 µM
[2]; read-out: pTGI (converted)
  TGI: 16.2 µM
[3]
  growth at 0.1 µM: 104%
[4]
  growth at 10 µM: -32%
[5]
  growth at 0.01 µM: 93%
[6]
  growth at 100 µM: -85%
[7]
  growth at 10 µM: -57%
[8]
  growth at 100 µM: -83%
[9]
  growth at 10 µM: -60%
[10]; read-out: GI50
  GI50: 2.63 µM
[10]; [37]
  CC50: 37.8 µM
[10]; read-out: TGI
  TGI: 10.4 µM
[10]; read-out: pGI50 (converted)
  GI50: 2.63 µM
[10]; [38]
  CC50: 38 µM
[10]; read-out: pTGI (converted)
  TGI: 10.5 µM
[11]
  IC50: 1.4 µM
[11]; read-out: GI50
  GI50: 1.4 µM
[11]; [37]
  CC50: 8.19 µM
[11]; read-out: TGI
  TGI: 3.39 µM
[11]; read-out: pGI50 (converted)
  GI50: 1.41 µM
[11]; [38]
  CC50: 8.13 µM
[11]; read-out: pTGI (converted)
  TGI: 3.39 µM
[12]
  growth at 10 µM: 34%
[13]
  growth at 0.01 µM: 92%
[14]
  growth at 1 µM: 102%
[15]
  growth at 0.1 µM: 100%
[16]
  growth at 0.01 µM: 95%
[17]; read-out: GI50
  GI50: 6.7 µM
[17]; [37]
  CC50: 43.7 µM
[17]; read-out: TGI
  TGI: 19.1 µM
[17]; read-out: pGI50 (converted)
  GI50: 6.76 µM
[17]; [38]
  CC50: 43.7 µM
[17]; read-out: pTGI (converted)
  TGI: 19.1 µM
[18]; read-out: GI50
  GI50: 2.72 µM
[18]; [37]
  CC50: 42.7 µM
[18]; read-out: TGI
  TGI: 14.4 µM
[18]; read-out: pGI50 (converted)
  GI50: 2.69 µM
[18]; [38]
  CC50: 42.7 µM
[18]; read-out: pTGI (converted)
  TGI: 14.5 µM
[19]
  growth at 1 µM: 82%
[20]
  growth at 1 µM: 92%
[21]
  growth at 10 µM: 1%
[22]
  growth at 1 µM: 74%
[23]
  growth at 1 µM: 85%
[24]
  growth at 100 µM: -84%
[25]
  GI50: 1.78 µM
[25]; [37]
  CC50: 6.89 µM
[25]; read-out: TGI
  TGI: 3.49 µM
[25]; [38]
  CC50: 6.92 µM
[25]; read-out: pTGI (converted)
  TGI: 3.47 µM
[26]
  growth at 0.01 µM: 100%
[27]
  growth at 0.01 µM: 89%
[28]
  growth at 0.1 µM: 99%
[29]
  growth at 0.01 µM: 95%
[30]
  growth at 0.1 µM: 92%
[31]
  growth at 100 µM: -90%
[32]
  growth at 10 µM: -93%
[33]
  growth at 0.1 µM: 97%
[34]
  growth at 0.1 µM: 97%
[35]
  growth at 0.1 µM: 91%
[36]; read-out: GI50
  GI50: 5.07 µM
[36]; [37]
  CC50: 43.3 µM
[36]; read-out: TGI
  TGI: 18.1 µM
[36]; read-out: pGI50 (converted)
  GI50: 5.13 µM
[36]; [38]
  CC50: 43.7 µM
[36]; read-out: pTGI (converted)
  TGI: 18.2 µM
